Source: patent US10604473B2, “Lipids that increase insulin sensitivity and methods of using the same” (Beth Israel Deaconess Medical Center, Inc., priority 2013, dated 2020)

Columns and labels:
Human islets = assay: Glucose-stimulated insulin secretion in primary human islets; assay type: cell-based
Procedure: Two human donors provided cells used in these studies. Donor1 was a person, 5′0″, 157 lbs, with a BMI of 30.5, HbA1C was 5.8, who died from a stroke, but it was witnessed and they had no downtime. Islets were 80% pure and 95% viable. After arrival, islets were incubated overnight in human islet media before stimulation with glucose in presence and absence of 5-PAHSA (lipid A-5). Note 1 IU of Human Insulin=6 nmol=34.8 μg Insulin.
Human islets were divided into ten groups [100 islets per condition]
A] Low glucose [2.5 mM]; B] High glucose [20.0 mM]; C] Low glucose [2.5 mM]+2.5 μL/mL Methanol; D] High glucose [20.0 mM]+2.5 μL/mL Methanol; E] Low glucose+20 μM Lipid A-5; F] High glucose+20 μM Lipid A-5; G] Low glucose+50 μM Lipid A-5; H] High glucose+50 μM Lipid A-5.
Islets were cultured overnight in Human Islet media and next day incubated with KRB buffer for 4 h prior to glucose stimulation.
Following KRB incubation, islets were stimulated with glucose [2.5 mM & 20.0 mM] in the presence and absence of Lipid A-5 [20 & 50 μM] for 45 min
At the end of glucose stimulation the amount of insulin released [μ IU/mL] into the media was measured using Human Insulin ELISA kit. And the insulin content from the islets were extracted to express insulin released into the media as μ IU/mL/islet content.
Donor 2 was a person, 183 cm, 176 lbs, with a BMI of 23.9, HbA1C was 5.0, died from a stroke, but it was witnessed and they had no downtime. Islets were 85% pure and 95% viable. After arrival, islets were incubated overnight in human islet media before stimulation with glucose in presence and absence of 5-PAHSA (Lipid A-5).
Human islets were divided into […] [75 islets per condition]: A] Low glucose [2.5 mM]; B] High glucose [20.0 mM]; C] Low glucose [2.5 mM]+2.5 μL/mL Methanol; D] High glucose [20.0 mM]+2.5 μL/mL Methanol; E] Low glucose+20 μM Lipid A-5; F] High glucose+20 μM Lipid A-5.
Following KRB incubation, islets were stimulated with glucose [2.5 mM & 20.0 mM] in the presence and absence of Lipid A-5 [20 μM] for 45 min.

purified CEL = target: T1, purified CEL (Homo sapiens, UniProt P19835); assay: FAHFA hydrolysis by purified CEL; assay type: biochemical; conditions: micellar concentrations of NaTC
T1 construct: purchased R&D Systems
T1 sequence (P19835 21-753): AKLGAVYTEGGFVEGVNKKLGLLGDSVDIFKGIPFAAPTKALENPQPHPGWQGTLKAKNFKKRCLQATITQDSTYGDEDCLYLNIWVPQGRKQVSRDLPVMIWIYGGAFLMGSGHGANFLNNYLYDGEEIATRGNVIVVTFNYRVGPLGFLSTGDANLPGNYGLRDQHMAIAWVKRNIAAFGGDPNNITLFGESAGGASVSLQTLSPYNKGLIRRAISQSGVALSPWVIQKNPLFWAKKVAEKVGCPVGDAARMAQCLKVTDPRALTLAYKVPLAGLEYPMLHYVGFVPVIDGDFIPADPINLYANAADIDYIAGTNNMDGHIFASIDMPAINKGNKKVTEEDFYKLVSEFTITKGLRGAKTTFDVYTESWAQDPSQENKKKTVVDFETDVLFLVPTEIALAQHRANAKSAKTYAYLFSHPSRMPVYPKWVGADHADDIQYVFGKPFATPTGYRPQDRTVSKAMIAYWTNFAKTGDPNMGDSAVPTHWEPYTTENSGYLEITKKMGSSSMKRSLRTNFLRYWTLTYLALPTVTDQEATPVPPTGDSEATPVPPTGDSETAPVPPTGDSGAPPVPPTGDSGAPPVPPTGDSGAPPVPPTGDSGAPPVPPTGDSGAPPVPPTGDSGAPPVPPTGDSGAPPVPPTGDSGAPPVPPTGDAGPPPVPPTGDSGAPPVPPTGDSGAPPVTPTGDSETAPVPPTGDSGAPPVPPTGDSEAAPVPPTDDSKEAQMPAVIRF
Description: To confirm the identification of CEL as a FAHFA hydrolase, a small amount of purified enzyme (available commercially from R&D Systems) was used.

SMILES | insulin secretion (Human islets; 2.5 mM glucose, 5-PAHSA 20 μM) | insulin secretion response (Human islets; 20 mM glucose, 5-PAHSA 20 μM) | Glucose Stimulated Insulin Secretion (Human islets; Donor 1) | Glucose Stimulated Insulin Secretion (Human islets; Donor 2) | hydrolysis of 9-PAHSA (9-HSA production) (purified CEL)
CCCCCCCCCCCCCCCC(=O)OC(CCCCCCCCCCCCC)CCCC(=O)O (centres unmarked) [5-PAHSA] | had no effect on insulin secretion | augmented the insulin secretion response | induces Glucose Stimulated Insulin Secretion | induces Glucose Stimulated Insulin Secretion | 
CCCCCCCCCCCCCCCC(=O)OC(CCCCCCCCC)CCCCCCCC(=O)O (centres unmarked) [9-PAHSA, palmitoyl-9-hydroxystearic acid] |  |  |  |  | substantial hydrolysis
